Experimental findings from patent EP4650362A1, “NEUROPROTECTIVE PSD-95 POLYPEPTIDE INHIBITOR AND USE THEREOF” (Beijing Tuo Jie Biopharmaceutical Co. Ltd., priority 2023, dated 2024) are described below.

The target in one series is T1, human PSD95-PDZ3 (Homo sapiens, UniProt P78352).
T1 construct: PDZ3 (309-401, Flag-His-Avitag-TEVsite tag); made in house
Put plainly: binding ELISA with Biotin-PDZ3. The text has this: The three PDZ domains in the PSD95 protein are structurally similar. Binding to the PDZ1 and PDZ2 domains can effectively block PSD95-mediated neuroexcitotoxicity. However, the biological function of binding to the PDZ3 domain is unclear. Therefore, to avoid potential safety concerns, this test example assessed the selectivity of polypeptide compounds for the PDZ2 and PDZ3 domains, aiming to identify polypeptide compounds that specifically bind to the PDZ2 domain. The expression and purification of PSD95-PDZ3 protein were carried out with reference to the steps in 3.1.2. The amino acid sequence of PDZ3 protein: […] Site-specifically biotinylated Biotin-PDZ2 and Biotin-PDZ3 proteins were used for binding ELISA assays. […] After the blocking was complete, the blocking solution was discarded, and the plate was washed three times with PBST buffer. […] After the incubation was complete, the reaction solutions in the microplate were discarded, and the plate was washed three times with PBST. 100 μL of HRP-SA secondary antibody (diluted at 1:2000) was added to each well, and the plate was incubated at 37 °C for 1 h. After the plate was washed three times with PBST, 100 μL of TMB chromogenic substrate was added. […] The absorbance at 450 nm was measured using a SpectraMax M5 microplate reader, and the binding EC50 values of the test compounds to Biotin-PDZ2 or Biotin-PDZ3 were calculated using GraphPad Prism 9. […] The abilities of polypeptide compounds to bind to human PSD95-PDZ2 and human PSD95-PDZ3
A general note: An ELISA detects its analyte on a solid surface through an enzyme-linked reagent.

The subject of series [1] is rat red blood cell suspensions. Nature of the series: hemolysis risk test in rat whole blood. Format: cell-based. To be noted: for Hemolysis rate (%): Rat, 37 °C 1 h; for hemolysis rates: rat whole blood, concentration range of 1 to 50 µM. The text has this:
Hemolysis refers to the phenomenon in which the membrane of erythrocytes is destroyed, along with increased transparency and a dark red appearance. Certain pharmaceutical ingredients, excipients, etc. may contain hemolytic components, which may cause hemolysis in the human body and cause adverse reactions such as local swelling and blood circulation dysfunction. On the basis of the principle that the hemoglobin released from lysed red blood cells has absorption in the visible light wave band, test compound solutions were added to rat red blood cell suspensions, and after incubation, the degrees of hemolysis were determined using a microplate reader.
This test example assessed whether a polypeptide compound causes hemolytic reactions in rat, rabbit, and human whole blood.
Preparation of red blood cell suspension: 100 µL of fresh whole blood was collected, and 900 µL of 1× PBS solution was then added. The mixture was shaken on a plate shaker at 30 rpm for 5 min and then centrifuged at 1000 g for 5 min, and the supernatant was discarded. The above washing step was repeated until the supernatant no longer appeared red. The suspension was set aside for later use.
Preparation of test polypeptide solutions: An appropriate amount of 1× PBS solution was added to a powdered polypeptide, and the polypeptide was dissolved to form a standard stock solution. […] Meanwhile, blank 1× PBS was used as a negative control, and a 1× PBS solution containing 0.1% Triton X-100 was used as a positive control.
Incubation: A test solution (500 µL) was added to the red blood cell suspension, and then the mixture was well shaken on a plate shaker at 30 rpm for 5 min, incubated at 37 °C for 1 h, and centrifuged at 1000 g for 5 min.
100 µL of the supernatant was transferred to a single well of a microplate. The absorbance at 540 nm was measured using a SpectraMax M5 microplate reader, and data analysis was performed using GraphPad Prism 9. The hemolysis rate (%) was calculated using the formula: (test sample absorbance - negative control absorbance) / (positive control absorbance - negative control absorbance) × 100%. A rate of less than 5% indicates the absence of hemolysis, while a rate of greater than 5% indicates the presence of hemolysis. Table 3. Testing of the hemolysis risk of the polypeptide compound

A short description of series [2]: pharmacokinetic study in beagle dogs, single intravenous infusion. It counts as in vivo. The method, then:
With standard beagle dogs as test animals, the pharmacokinetic behavior of a polypeptide compound administered via single intravenous infusion in beagle dogs (plasma) was studied.
For polypeptide compound 22, two dose groups were set: 1.2 nmol/g and 0.4 nmol/g. For NA-1, one dose group was set: 1.2 nmol/g. Each group consisted of four animals, with an equal number of males and females. The polypeptide compound was dissolved in 1× PBS, and the polypeptide compound solution was then administered via intravenous infusion over 10 min. The blood collection time points were as follows: before infusion (0 h), 5 min after the start of bolus injection, and 0 min, 2 min, 5 min, 10 min, 15 min, 30 min, 1 h, 2 h, 4 h, 8 h, and 24 h after the end of bolus injection. At each time point, 0.5 mL of blood was collected and transferred to an EDTA-K2 anticoagulation centrifuge tube. Meanwhile, 50 µL of a protease inhibitor was added. After thorough mixing, the mixture was centrifuged at 2000 g for 10 min (4 °C), and the plasma was separated within 1 h, aliquoted into cryopreservation tubes, and stored at -60 to -90 °C. The blood collection-to-centrifugation process was performed under ice bath conditions.
The plasma concentrations of the test compounds were determined using the method in Test Example 3.4.3. Plasma concentration-time curves were plotted, and the pharmacokinetic parameters were calculated using PKSolver software.

Setting [3] is: beagle dogs, intravenous infusion over 10 min, 0.4 nmol/g, Male.
The mark [4] stands for this setting: beagle dogs, intravenous infusion over 10 min, 1.2 nmol/g, Female.
[5] abbreviates: beagle dogs, intravenous infusion over 10 min, 1.2 nmol/g, Male.
[6] abbreviates: both sexes, beagle, dog, in vivo, iv, dogs, same dose (1.2 nmol/g), read-out: average T1/2 (converted).
Setting [7] is: dog, plasma, beagle dogs, intravenous infusion over 10 min, 0.4 nmol/g, Female.
Where [8] appears, read: dog, plasma, beagle dogs, intravenous infusion over 10 min, 0.4 nmol/g, Male.
Setting [9] is: dog, plasma, beagle dogs, intravenous infusion over 10 min, 1.2 nmol/g, Female.
Setting [10] is: dog, plasma, beagle dogs, intravenous infusion over 10 min, 1.2 nmol/g, Male.
Where [11] appears, read: dog, in vivo, beagle dogs, intravenous infusion over 10 min, 1.2 nmol/g, Female.
Setting [12] is: dog, in vivo, beagle dogs, intravenous infusion over 10 min, 1.2 nmol/g, Male.

Where two headings read alike, the source gives them in different places. Non-standard residues stand in square brackets, D forms with d. Residues, ends and D or L forms follow the SMILES beside them. No end group written: not given here. Tle = CC(C)(C)[C@H](N)C(=O)O; Dab = NCC[C@H](N)C(=O)O; Aib = CC(C)(N)C(=O)O Bounds are passed on as bounds.

T1 sequence (P78352 309-401): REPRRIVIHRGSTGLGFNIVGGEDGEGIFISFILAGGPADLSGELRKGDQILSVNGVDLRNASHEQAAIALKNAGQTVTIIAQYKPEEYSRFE

For orientation: EC50 means the concentration needed to bring the measured effect to its halfway point. On human PSD95-PDZ3, `CC[C@H](C)[C@H](NC(=O)[C@H](CO)NC(=O)[C@H](CO)NC(=O)[C@H](CC(C)C)NC(=O)[C@@H](CCCCN)NC(=O)[C@H](CCCNC(=N)N)NC(=O)[C@H](CCCNC(=N)N)NC(=O)[C@@H](CCCNC(=N)N)NC(=O)[C@H](CCC(N)=O)NC(=O)[C@@H](CCCNC(=N)N)NC(=O)[C@H](CCCNC(=N)N)NC(=O)[C@H](CCCCN)NC(=O)[C@H](CCCCN)NC(=O)[C@@H](CCCNC(=N)N)NC(=O)CNC(=O)[C@@H](N)Cc1ccc(O)cc1)C(=O)N[C@@H](CCC(=O)O)C(=O)N[C@@H](CO)C(=O)N[C@@H](CC(=O)O)C(=O)N[C@H](C(=O)O)C(C)C` [NoNO42, YGrKKRrQrRRkLSSIESDV, reference compound] (H-YG[dR]KKR[dR]Q[dR]RR[dK]LSSIESDV-OH) gave an EC50 of over 1000 µM.

Turning to `CC(C)[C@H](NC(=O)[C@H](CC(=O)O)NC(=O)[C@@H](NC(=O)[C@@H](NC(=O)[C@@H](NC(=O)[C@@H](NC(=O)[C@H](CCN)NC(=O)C(C)(C)NC(=O)CNC(=O)[C@@H](CCCNC(=N)N)NC(=O)[C@@H](CCCNC(=N)N)NC(=O)[C@@H](CCCNC(=N)N)NC(=O)[C@@H](CCC(N)=O)NC(=O)[C@@H](CCCNC(=N)N)NC(=O)[C@@H](CCCNC(=N)N)NC(=O)[C@@H](CCCCN)NC(=O)[C@@H](CCCCN)NC(=O)[C@@H](CCCNC(=N)N)NC(=O)CNC(=O)[C@H](N)Cc1ccc(O)cc1)[C@@H](C)O)C(C)(C)C)C(C)(C)C)[C@@H](C)O)C(=O)O` [Polypeptide compound 14, y-G-r-k-k-r-r-q-r-r-r-G-Aib-Dab-T-Tle-Tle-T-D-V] (H-[dY]G[dR][dK][dK][dR][dR][dQ][dR][dR][dR]G[Aib][Dab]T[Tle][Tle]TDV-OH), the EC50 at human PSD95-PDZ3 (plate coated with 2 µM test compound, Biotin-PDZ3 titrated, read-out: EC50 (PDZ3)) is over 1000 µM. Also, the “Hemolysis rate (%)” value is recorded as 0.11% in series [1] (1.0 µM); 0.17% in series [1] (2.5 µM); -0.11% in series [1] (5.0 µM); 0.00% in series [1] (10 µM); -0.16% in series [1] (25 µM); 0.12% in series [1] (50 µM). Besides, in series [1], the hemolysis rates result is “less than 5%”.

What is called Tmax is the time at which the peak concentration occurs. Broadly, the AUC(0-inf) is total exposure, with the tail of the curve extrapolated. Usually Cmax stands for the peak of the concentration-time curve. The MRT is the average time that molecules of a dose stay in the body. With `CC(C)[C@H](NC(=O)[C@H](CC(=O)O)NC(=O)[C@@H](NC(=O)[C@@H](NC(=O)[C@@H](NC(=O)[C@@H](NC(=O)[C@H](CCN)NC(=O)C(C)(C)NC(=O)CNC(=O)[C@@H](CCCNC(=N)N)NC(=O)[C@H](CCCNC(=N)N)NC(=O)[C@H](CCCNC(=N)N)NC(=O)[C@H](CCC(N)=O)NC(=O)[C@@H](CCCNC(=N)N)NC(=O)[C@H](CCCNC(=N)N)NC(=O)[C@H](CCCCN)NC(=O)[C@H](CCCCN)NC(=O)[C@H](N)CCCNC(=N)N)[C@@H](C)O)C(C)(C)C)C(C)(C)C)[C@@H](C)O)C(=O)O` [Polypeptide compound 22, r-K-K-R-r-Q-R-R-r-G-Aib-Dab-T-Tle-Tle-T-D-V] (H-[dR]KKR[dR]QRR[dR]G[Aib][Dab]T[Tle][Tle]TDV-OH), the AUClast/dose was determined as 5730 in series [2] (beagle dogs, intravenous infusion over 10 min, 0.4 nmol/g, Female); 4513 in series [2] (setting [3]); 6558 in series [2] (setting [4]); 8183 in series [2] (setting [5]). Also, the Tmax is 10.2 min in series [2] (setting [3]); 10.8 min in series [2] (setting [5]); 10.2 min in series [2] (dog, plasma, beagle dogs, intravenous infusion over 10 min, 0.4 nmol/g, Female, read-out: Tmax); 10.8 min in series [2] (dog, plasma, beagle dogs, intravenous infusion over 10 min, 1.2 nmol/g, Female, read-out: Tmax). Further, the T1/2 was found to be 255 min in series [2] (setting [4]) and 354 min in series [2] (setting [5]). The half-life in series [2] (setting [6]) is 306 min; in series [2] (dog, plasma, beagle dogs, intravenous infusion over 10 min, 0.4 nmol/g, Female, read-out: T1/2 (converted)) it was 170 min; in series [2] (dog, plasma, beagle dogs, intravenous infusion over 10 min, 0.4 nmol/g, Male, read-out: T1/2 (converted)), 202 min. The AUC(0-inf) was 5890 ng·h/mL in series [2] (setting [7]), 5170 ng·h/mL in series [2] (setting [8]), 18000 ng·h/mL in series [2] (setting [9]) and 23500 ng·h/mL in series [2] (setting [10]). The Cmax in series [2] (setting [7]) amounted to 3930 ng/mL; in series [2] (setting [8]), 2320 ng/mL; in series [2] (setting [9]), 8130 ng/mL; in series [2] (setting [10]), 7680 ng/mL. Moreover, the MRT in series [2] (setting [7]) turned out to be 220 min; in series [2] (setting [8]), 277 min; in series [2] (setting [9]) it was 295 min; in series [2] (setting [10]), 422 min. In addition, the “average AUC, times that of NA-1” value in series [2] (dogs, same dose (1.2 nmol/g)) was found to be 21.3 times. The “average Cmax, times that of NA-1” value in series [2] (dogs, same dose (1.2 nmol/g)) amounted to 1.3 times.

In the case of “YGRKKRRQRRRKLSSIESDV [NA-1, YGRKKRRQR RRKLSSIESDV, reference compound]”, the EC50 on human PSD95-PDZ3 was over 1000 µM. In addition, the AUClast/dose was 284 in series [2] (setting [4]) and 363 in series [2] (setting [5]). For the same compound, the T1/2 in series [2] (setting [4]) turned out to be 2.4 min; in series [2] (setting [5]), 3 min. Besides, the half-life in series [2] (setting [6]) is 2.7 min. The AUC(0-inf) in series [2] (setting [11]) stood at 855 ng·h/mL; in series [2] (setting [12]), 1100 ng·h/mL. In addition, the figures for the Cmax in series [2] (setting [11]) and in series [2] (setting [12]) were 5030 ng/mL and 6780 ng/mL, respectively. Further, the MRT was 9 min in series [2] (setting [11]) and 9.6 min in series [2] (setting [12]). Moreover, the Tmax in series [2] (dog, in vivo, beagle dogs, intravenous infusion over 10 min, 1.2 nmol/g, Female, read-out: Tmax) is 7.8 min; in series [2] (dog, in vivo, beagle dogs, intravenous infusion over 10 min, 1.2 nmol/g, Male, read-out: Tmax), 10.2 min. In addition, the “Hemolysis rate (%)” value in series [1] (1.0 µM) is -0.12%; in series [1] (2.5 µM), 0.03%; in series [1] (5.0 µM) it was 0.50%; in series [1] (10 µM) it was 0.48%; in series [1] (25 µM), 0.34%; in series [1] (50 µM), -0.46%. Besides, the hemolysis rates entry in series [1] is “less than 5%”.
